Test results as given in patent US12391672B2, “Solid forms comprising (S)-4-(4-(4-(((2-(2,6-dioxopiperidin-3-yl)-1-oxoisoindolin-4-yl)oxy)methyl)benzyl)piperazin-1-yl)-3-fluorobenzonitrile and salts thereof, and compositions comprising and methods of using the same” (Celgene Corporation, priority 2019, dated 2025).
Several values for one entry are separate records, joined by “and”; a condition that tells them apart may be missing. Equal entries are not always repeated.

Experiments:
Type in all cases: physicochemical
[1] = Dynamic vapor sorption / hygroscopicity; conditions: for hygroscopicity: DVS, class by mass gain at 85% r.h.; for solid form after DVS cycle: after the DVS humidity cycle
Protocol: Projekt Messtechnik (now ProUmid) SPS11-100n. The sample was placed on an aluminum holder on top of a microbalance and allowed to equilibrate at 50% r.h. before starting one of the following pre-defined humidity programs (1 cycle): • hold 2 h at 50% r.h., • decrease humidity −5% r.h. h^−1 for 10 h (i.e., from 50% r.h. to 0% r.h.), • hold 5 h at […]., • increase humidity +5% r.h. h^−1 for 19 h (i.e., from 0% r.h. to 95% r.h.), • hold 5 h at 95% r.h., • decrease humidity −5% r.h. h^−1 for 9 h (i.e., from 95% r.h. to 50% r.h.), • hold 2 h at 50% r.h. or • hold 2 h at 50% r.h., • increase humidity +5% r.h. h^−1 for 9 h (i.e., from 50% r.h. to 95% r.h.), • hold 5 h at 95% r.h., • decrease humidity −5% r.h. h^−1 for 19 h (i.e., from 95% r.h. to 0% r.h.), • hold 5 h at 0% r.h., • increase humidity +5% r.h. h^−1 for 10 h (i.e., from 0% r.h. to 50% r.h.), • hold 2 h at 50% r.h.
The hygroscopicity was classified based on the mass gain at 85% r.h. relative to the initial mass as follows: deliquescent (sufficient water adsorbed to form a liquid), very hygroscopic (mass increase of […]), hygroscopic (mass increase of <15% but ≥2%), slightly hygroscopic (mass increase of <2% but ≥0.2%), or non-hygroscopic (mass increase of <0.2%).

[2] = Solubility determination (15 minutes at room temperature, HPLC)
Protocol: 1 mL of buffer or of ultrapure (resistivity≥18.2 Mf cm) water was added to a pre-weighed, approximately twenty milligram aliquot of the substance to be measured. The resulting suspensions were stirred for 15 minutes at room temperature with magnetic stirrers. The suspensions were centrifuged and filtered through Millipore 0.2 μm PVDF filters, and the concentration of each filtrate (i.e., saturated solution) was determined using a general HPLC method. The pH of each saturated solution was measured with a Metrohm 713 pH meter.
To assess whether Form K and Form K′ are likely to have different bioavailabilities, comparative solubility measurements were carried out in physiologically relevant media. Samples of Form K and Form K′ were separately equilibrated in pure water, pH 2.0 buffer, and pH 6.8 buffer for fifteen minutes, and the solids were then separated from the solvents. The concentration of the compound in the filtrate (i.e., the solubility) was assessed in each case, and the solid residues were also monitored by powder X-ray diffraction. All six solid residues correspond to Form K, confirming that Form K′ rapidly incorporates water into its lattice when suspended in an aqueous environment even when the solubility is low. While the solubilities in pure water and at pH 6.8 were below the limit of quantitation of 0.0001 mg/mL, the solubilities at pH 2.0 could be measured. […] Thus, the bioavailabilities of the two forms are expected to be similar, and precise control of the water content (and, thereby, the solid form) is presumably not necessary from a scientific point of view. Given that the critical water activity is in the range aH2O=0.11-0.17, the hydrated Form K is likely to be the more easily stabilized of the two forms under ambient laboratory conditions.

[3] = Critical water activity of hydrochloride Form L and Form N; conditions: for form after slurry (XRPD): water/acetone
Protocol: Determination of critical water activity for Form L and Form N: 50 mg of Form L was suspended in 0.5-1 ml of water/acetone solution with specific water activity. The solutions were stirred at RT or 60′° C. Form conversion was monitored by XRPD over 2 weeks.

[4] = Solid state stability under accelerated storage conditions
Protocol: Form A was not isolated directly as a wet cake but formed only upon drying of Form E in polymorphism studies. […] Small quantities of Form A were generated by dissolving a crude Compound 1 in MEK at high temperature, followed by fast cooling to room temperature, filtration and drying. DSC and TGA data were obtained for samples of Form A and following storage for 1 week at 60° C. and 60° C./75% RH. […] TGA analysis confirmed that this broad endotherm was most likely due to moisture uptake under the accelerated storage conditions. Most of the weight loss of 0.82% in this sample occurred in a single step at less than 75° C. By contrast, weigh loss was a two-step process at the initial time point. […] The residual solvent initially present in the sample was lost upon storage of the sample at 60° C. (0.13% weight loss between 25 to 150° C.).
Form B could be obtained from a process involving methyl acetate. […] HPLC traces were taken of the samples of Form B and following storage for 2 week at 60° C. and 60° C./75% RH. […] Several small degradation products were seen to grow especially in the sample stored at 60° C. Chiral instability was also observed in the sample stored at 60° C./75% RH.
Physical stability: Visually, all samples of Form K were white colored powder with no apparent change in color in the samples stored under accelerated conditions (40° C., 40° C./75% RH, 60° C., 60° C./75% RH and sample stored in light chamber in clear vials exposed to light and covered in aluminum foil) for 14 d relative to the sample stored refrigerated and under ambient conditions.
Solid state chemical stability: HPLC analysis were performed on Form K samples stored under the accelerated stability conditions. […] Based on the HPLC analysis data, there is a measurable but small change in the chemical stability of Form K under the accelerated conditions of temperature, humidity and exposure to light over the 14 d period.
Solid state chiral stability: Chiral stability of Form K samples stored under accelerated stability conditions was tested. There was ˜2.9% of the R-enantiomer (97.1 area % of the active S-isomer) in the initial sample. […]
The chiral purity (area % of S-isomer) remained […] under the accelerated stability conditions.

[5] = Storage at controlled relative humidities (Form K / Form K′)
Excerpt: It was noticed that after Form K was dried, the XRPD peaks of Form K shifted to a higher value and the resulting XRPD pattern is called Form K′. To further understand the relationships between the two forms, free base Form K and Form K′ were placed on XRPD sample holders and stored in a closed Jars with saturated salt solutions for RH controls at ambient temperature, respectively. […] The XRPD diffractograms of the samples after 2-day storage are presented in FIG. 132 and FIG. 133, respectively. […] Since the peaks of Form K shifted to higher 2-theta value as Form K loses water molecules to Form K′, Form K and Form K′ are on a continuum.

[6] = Solubility of polymorphic forms in physiologically relevant media and final pH
Excerpt: Solubility data of the several polymorphic forms of Compound 1 in physiologically relevant media and the final pH of these solutions are summarized in the following tables.

[7] = relative humidity from about 5% to about 95%

Cl.N#Cc1ccc(N2CCN(Cc3ccc(COc4cccc5c4CN(C4CCC(=O)NC4=O)C5=O)cc3)CC2)c(F)c1 (stereo not drawn)
hygroscopicity [1]: hygroscopic (hygroscopic (mass increase of <15% but ≥2%)) | solid form after DVS cycle [1]: remains as Form A | DVS mass increase [1, 7]: about 11.7% | aqueous solubility for the free base component ([2]; water, sample changed (solid-form transformation or gel), value may not represent the initial form): 4.1 mg/mL and 7.2 mM

Cl.N#Cc1ccc(N2CCN(Cc3ccc(COc4cccc5c4CN([C@H]4CCC(=O)NC4=O)C5=O)cc3)CC2)c(F)c1
hygroscopicity [1]: slightly hygroscopic (slightly hygroscopic (mass increase of <2% but ≥0.2%)) | solid form after DVS cycle [1]: remains as Form L | DVS mass increase ([1]; relative humidity from about 0% to about 95%): about 0.6% | critical water activity (Form L to Form N) ([3]; 60° C.): 0.4-0.5 | critical water activity (Form L to Form N) ([3]; RT): 0.2-0.4 | form after slurry (XRPD) ([3]; Aw 0.1, RT): Form L | form after slurry (XRPD) ([3]; Aw 0.2, 60° C.): Form L | form after slurry (XRPD) ([3]; Aw 0.2, RT): Form L | form after slurry (XRPD) ([3]; Aw 0.3, 60° C.): Form L | form after slurry (XRPD) ([3]; Aw 0.3, RT): Form AA | form after slurry (XRPD) ([3]; Aw 0.4, 60° C.): Form L | form after slurry (XRPD) ([3]; Aw 0.4, RT): Form N | form after slurry (XRPD) ([3]; Aw 0.5, 60° C.): Form N | form after slurry (XRPD) ([3]; Aw 0.5, RT): Form N

N#Cc1ccc(N2CCN(Cc3ccc(COc4cccc5c4CN([C@H]4CCC(=O)NC4=O)C5=O)cc3)CC2)c(F)c1.O=S(=O)(O)c1ccccc1 [Form B of a besylate salt of Compound 1]
hygroscopicity [1]: slightly hygroscopic (slightly hygroscopic (mass increase of <2% but ≥0.2%)) | solid form after DVS cycle [1]: remains as Form B | DVS mass increase [1, 7]: about 1.75% | physical stability (XRPD) ([4]; 40° C., 40° C./75% RH, 60° C., 60° C./75% RH, and under light for 14 days): physically stable | chiral purity (area % of S-isomer) ([4]; accelerated stability conditions, 14 days): above 99% | Chemical purity (HPLC) on storage ([4]; accelerated stability conditions, 14 days, peak grows with temperature and humidity): showed degradation peak

N#Cc1ccc(N2CCN(Cc3ccc(COc4cccc5c4CN([C@H]4CCC(=O)NC4=O)C5=O)cc3)CC2)c(F)c1 [Form D of a free base of Compound 1]
hygroscopicity ([1]; listed as Form D): slightly hygroscopic (slightly hygroscopic (mass increase of <2% but ≥0.2%)) | solid form after DVS cycle ([1]; listed as Form D): a mixture of Form B and Form E | DVS mass increase ([1]; relative humidity from about 5% to about 95%, listed as Form D): about 3.0%

N#Cc1ccc(N2CCN(Cc3ccc(COc4cccc5c4CN([C@H]4CCC(=O)NC4=O)C5=O)cc3)CC2)c(F)c1 [Form K′ of a free base of Compound 1]
form conversion on storage (XRPD) ([5]; 22% RH or above, ambient temperature): converts to K | PXRD result after storage ([5]; stored at 17% r.h. and r.t. for 2.5 d): Form K | solubility at pH 2.0 ([2]; pH 2.0 buffer, fifteen minutes): 0.93 mg/mL | solid residue after solubility measurement (powder X-ray diffraction) ([2]; pure water, pH 2.0 buffer and pH 6.8 buffer, fifteen minutes): Form K

Cl.N#Cc1ccc(N2CCN(Cc3ccc(COc4cccc5c4CN([C@H]4CCC(=O)NC4=O)C5=O)cc3)CC2)c(F)c1 [HC1 Salt]
Solubility ([6]; FaSSIF): 1 µg/mL | Solubility ([6]; FeSSiF): 94 µg/mL | Solubility ([6]; SGF with pepsin): 295 µg/mL | Solubility ([6]; pH 1 buffer HC1/NaC1): 71 µg/mL | Solubility ([6]; pH 3 buffer (phosphate)): 149 µg/mL | Solubility ([6]; pH 4 buffer (acetate)): 124 µg/mL | Solubility ([6]; pH 5 buffer (acetate)): 17 µg/mL | Final pH ([6]; solubility sample in FaSSIF): 5.96 | Final pH ([6]; solubility sample in FeSSiF): 4.99 | Final pH ([6]; solubility sample in SGF with pepsin): 1.28 | Final pH ([6]; solubility sample in pH 1 buffer HC1/NaC1): 1.05 | Final pH ([6]; solubility sample in pH 3 buffer (phosphate)): 3.05 | Final pH ([6]; solubility sample in pH 4 buffer (acetate)): 4.00 | Final pH ([6]; solubility sample in pH 5 buffer (acetate)): 4.83
